This assay deals with LMP1 expression in Kem I cells. The assay can be described thus: microbe, parasite or virus in culture. The format is cell-based, EBV. As to conditions: for Average LMP1 Fold Increase / Replicate 1-LMP1 Fold Increase / Replicate 2-LMP1 Fold Increase: Kem I cells, 2.5 uM, 48 hours; for Average LMP1 Fold Increase: average of replicates 1 and 2; for Replicate 1-LMP1 Fold Increase / Replicate 2-LMP1 Fold Increase: fold change in LMP1 transcript vs vehicle; for fold induction at 2.5 µM / fold induction at 1 µM: human gammaherpesvirus 4, 48 h.

Setting [1] is: read-out: Average LMP1 Fold Increase, Kem I cells, 2.5 uM, 48 hours, average of replicates 1 and 2.
The mark [2] stands for this setting: read-out: Replicate 1-LMP1 Fold Increase, Kem I cells, 2.5 uM, 48 hours, fold change in LMP1 transcript vs vehicle.
Setting [3] is: read-out: Replicate 2-LMP1 Fold Increase, Kem I cells, 2.5 uM, 48 hours, fold change in LMP1 transcript vs vehicle.
The mark [4] stands for this setting: read-out: Average LMP1 Fold Increase, Kem I cells, 1 uM, 48 hours, average of replicates 1 and 2.
Where [5] appears, read: read-out: Replicate 1-LMP1 Fold Increase, Kem I cells, 1 uM, 48 hours, fold change in LMP1 transcript vs vehicle.
[6] abbreviates: read-out: Replicate 2-LMP1 Fold Increase, Kem I cells, 1 uM, 48 hours, fold change in LMP1 transcript vs vehicle.

Where a name gives a salt, the structure may show the parent alone. Read-outs that look alike come from different tables or passages of the source.

Here are results for 35 molecules from patent publication US20230053688A1, “METHODS TO ALTER LATENCY IN EBV+ MALIGNANCIES” (Cornell University, priority 2020, published 2023).

Regarding `Cc1ccc2c(=O)c3cccc(CC(=O)O)c3oc2c1C` [DMXAA (Vadimezan)], the “Average LMP1 Fold Increase” value amounted to 0.87, the “Replicate 1-LMP1 Fold Increase” value was found to be 0.44 and the “Replicate 2-LMP1 Fold Increase” value is reported as 1.29.

Take `CC(C)(C)c1nc(-c2cccc(NS(=O)(=O)c3c(F)cccc3F)c2F)c(-c2ccnc(N)n2)s1` [Dabrafenib (GSK2118436)]: the “Average LMP1 Fold Increase” value was 0.92, the “Replicate 1-LMP1 Fold Increase” value stood at 0.61 and the “Replicate 2-LMP1 Fold Increase” value was 1.22.

For the molecule `CCC(CC)CC1(C(=O)Nc2ccccc2SC(=O)C(C)C)CCCCC1` [Dalcetrapib (JTT-705, RO4607381)], the “Average LMP1 Fold Increase” value is reported as 0.98, the “Replicate 1-LMP1 Fold Increase” value is on record as 0.61 and the “Replicate 2-LMP1 Fold Increase” value amounted to 1.34.

`CCOc1ccc(Cc2cc([C@@H]3O[C@H](CO)[C@@H](O)[C@H](O)[C@H]3O)ccc2Cl)cc1` [Dapagliflozin]: the fold induction at 2.5 µM by setting is: under setting [1], 1.01; under setting [2], 0.69; under setting [3], 1.34.

As to `COc1cccc2c1C(=O)c1c(O)c3c(c(O)c1C2=O)C[C@@](O)(C(C)=O)C[C@@H]3O[C@H]1C[C@H](N)[C@H](O)[C@H](C)O1` [Daunorubicin HCl], the fold induction at 2.5 µM is, setting by setting: under setting [1], 242; under setting [2], 221; under setting [3], 262.

Regarding `COc1cc2nc(N3CCN(C(=O)C4COc5ccccc5O4)CC3)nc(N)c2cc1OC` (stereo not drawn) [Doxazosin Mesylate], the fold induction at 2.5 µM under setting [1] was 0.81, the fold induction at 2.5 µM under setting [2] came to 0.67 and the fold induction at 2.5 µM under setting [3] stood at 0.95.

With `COc1cccc2c1C(=O)c1c(O)c3c(c(O)c1C2=O)C[C@@](O)(C(=O)CO)C[C@@H]3O[C@H]1C[C@H](N)[C@H](O)[C@H](C)O1` [Doxorubicin], the fold induction at 1 µM stood at 47 under setting [4], 39.2 under setting [5] and 54.8 under setting [6].

As for `C[C@]12C=CC(=O)N[C@@H]1CC[C@@H]1[C@@H]2CC[C@]2(C)[C@@H](C(=O)Nc3cc(C(F)(F)F)ccc3C(F)(F)F)CC[C@@H]12` [Dutasteride], the fold induction at 2.5 µM amounted to 0.39 under setting [1], 0.38 under setting [2] and 0.41 under setting [3].

For the molecule `O=C(N/N=C/c1ccc(O)c(O)c1)c1cc2ccccc2cc1O` [Dynasore], the fold induction at 2.5 µM runs as follows: under setting [1], 0.77; under setting [2], 0.64; under setting [3], 0.89.

With `CCn1c2ccccc2c2cc(Nc3ccnc(NCCCN4CCOCC4)n3)ccc21` [EHop-016], the “Average LMP1 Fold Increase” value turned out to be 1.06, the “Replicate 1-LMP1 Fold Increase” value was determined as 0.70 and the “Replicate 2-LMP1 Fold Increase” value came out at 1.43.

Turning to `CCN(c1cc(-c2ccc(CN3CCOCC3)cc2)cc(C(=O)NCc2c(C)cc(C)[nH]c2=O)c1C)C1CCOCC1` [EPZ 6438], the fold induction at 1 µM is, setting by setting: under setting [4], 24.5; under setting [5], 2.14; under setting [6], 46.9.

Consider `CCN(c1cc(C#CCN2CCOCC2)cc(C(=O)NCc2c(C)cc(C)[nH]c2=O)c1C)[C@H]1CC[C@H](N(C)CCOC)CC1` [EPZ 011989], for which the fold induction at 1 µM is 30.5 under setting [4], 4.1 under setting [5] and 56.9 under setting [6].

On to `COc1cccc(C=NCCN=Cc2cccc(OC)c2[O-])c1[O-].[Cl-].[Mn+3]` [EUK 134], for which the “Average LMP1 Fold Increase” value was 0.90, the “Replicate 1-LMP1 Fold Increase” value is listed as 0.85 and the “Replicate 2-LMP1 Fold Increase” value amounted to 0.95.

For `NC(=O)C1CCCc2c1[nH]c1ccc(Cl)cc21` (stereo not drawn) [EX 527 (Selisistat)], the “Average LMP1 Fold Increase” value turned out to be 0.81, the “Replicate 1-LMP1 Fold Increase” value is recorded as 0.24 and the “Replicate 2-LMP1 Fold Increase” value was 1.38.

Turning to `COc1cc2c(cc1Cc1cccc(Cl)c1F)c(=O)c(C(=O)O)cn2[C@H](CO)C(C)C` [Elvitegravir (GS-9137, JTK-303)], the “Average LMP1 Fold Increase” value worked out at 1.23, the “Replicate 1-LMP1 Fold Increase” value is 1.25 and the “Replicate 2-LMP1 Fold Increase” value was found to be 1.20.

With `CCCCCCCCCCCC1=C(O)C(=O)C=C(O)C1=O` [Embelin], the fold induction at 2.5 µM under setting [1] was 0.59, the fold induction at 2.5 µM under setting [2] worked out at 0.43 and the fold induction at 2.5 µM under setting [3] was 0.74.

On to `OC[C@H]1O[C@@H](c2ccc(Cl)c(Cc3ccc(O[C@H]4CCOC4)cc3)c2)[C@H](O)[C@@H](O)[C@@H]1O` [Empagliflozin (BI 10773)], for which the “Average LMP1 Fold Increase” value is on record as 0.58, the “Replicate 1-LMP1 Fold Increase” value is 0.67 and the “Replicate 2-LMP1 Fold Increase” value came to 0.50.

For the molecule `C[C@H](N[C@@H](CCc1ccccc1)C(=O)O)C(=O)N1CCC[C@H]1C(=O)O.O.O` [Enalaprilat Dihydrate], the “Average LMP1 Fold Increase” value is 0.51, the “Replicate 1-LMP1 Fold Increase” value stood at 0.51 and the “Replicate 2-LMP1 Fold Increase” value turned out to be 0.52.

In the case of `CCN(CC)C(=O)/C(C#N)=C/c1cc(O)c(O)c([N+](=O)[O-])c1` [Entacapone], the fold induction at 2.5 µM is 0.6 under setting [1], 0.49 under setting [2] and 0.71 under setting [3].

For the molecule `CNC(=O)c1ccc(N2C(=S)N(c3ccc(C#N)c(C(F)(F)F)c3)C(=O)C2(C)C)cc1F` [Enzalutamide (MDV3100)], the “Average LMP1 Fold Increase” value is recorded as 0.96, the “Replicate 1-LMP1 Fold Increase” value came out at 0.88 and the “Replicate 2-LMP1 Fold Increase” value was 1.05.

In the case of `Cn1cc(C2=C(c3cn(C4CCN(Cc5ccccn5)CC4)c4ccccc34)C(=O)NC2=O)c2ccccc21` [Enzastaurin (LY317615)], the “Average LMP1 Fold Increase” value is 25.14, the “Replicate 1-LMP1 Fold Increase” value is recorded as 0.48 and the “Replicate 2-LMP1 Fold Increase” value turned out to be 49.80.

As to `CCOc1ccccc1-n1c(C(C)N2CCN(C(=O)COc3ccc(Cl)cc3)CC2)nc2ccccc2c1=O` (stereo not drawn) [Erastin], the fold induction at 2.5 µM under setting [1] stood at 0.73, the fold induction at 2.5 µM under setting [2] was 0.7 and the fold induction at 2.5 µM under setting [3] was found to be 0.75.

On to `COc1ccc2nc([S@@+]([O-])Cc3ncc(C)c(OC)c3C)[nH]c2c1` [Esomeprazole Sodium], for which the fold induction at 2.5 µM was found to be 0.3 under setting [1], 0.16 under setting [2] and 0.44 under setting [3].

Turning to `CCc1cccc2c3c([nH]c12)C(CC)(CC(=O)O)OCC3` (stereo not drawn) [Etodolac], the fold induction at 2.5 µM under setting [1] amounted to 0.84, the fold induction at 2.5 µM under setting [2] was determined as 0.57 and the fold induction at 2.5 µM under setting [3] worked out at 1.1.

With `CCOC(=O)c1cncn1[C@H](C)c1ccccc1` [Etomidate], the fold induction at 2.5 µM came to 0.5 under setting [1], 0.56 under setting [2] and 0.44 under setting [3].

Take `CO[C@H]1C[C@@H]2CC[C@@H](C)[C@@](O)(O2)C(=O)C(=O)N2CCCC[C@H]2C(=O)O[C@H]([C@H](C)C[C@@H]2CC[C@@H](OCCO)[C@H](OC)C2)CC(=O)[C@H](C)/C=C(\C)[C@@H](O)[C@@H](OC)C(=O)[C@H](C)C[C@H](C)/C=C/C=C/C=C/1C` [Everolimus (RAD001)]: the “Average LMP1 Fold Increase” value came to 1.65, the “Replicate 1-LMP1 Fold Increase” value came out at 2.00 and the “Replicate 2-LMP1 Fold Increase” value was determined as 1.31.

As to `C=C1C[C@@H]2[C@H](CC[C@]3(C)C(=O)CC[C@@H]23)[C@@]2(C)C=CC(=O)C=C12` [Exemestane], the fold induction at 2.5 µM is 0.7 under setting [1], 0.53 under setting [2] and 0.86 under setting [3].

Take `Cc1nc(C(=O)NCC(=O)O)c(O)c2ccc(Oc3ccccc3)cc12` [FG-4592]: the fold induction at 2.5 µM under setting [1] was 0.22, the fold induction at 2.5 µM under setting [2] worked out at 0.19 and the fold induction at 2.5 µM under setting [3] turned out to be 0.24.

`CC1=C(C(=O)OC2CCCCC2)C(c2ccc([N+](=O)[O-])cc2)C2=C(CC(C)(C)CC2=O)N1` (stereo not drawn) [FLI-06]: the “Average LMP1 Fold Increase” value is given as 0.46, the “Replicate 1-LMP1 Fold Increase” value is listed as 0.19 and the “Replicate 2-LMP1 Fold Increase” value is 0.73.

As to `CCOC(=O)C1=C(C)NC(C)=C(C(=O)OC)C1c1cccc(Cl)c1Cl` (stereo not drawn) [Felodipine], the fold induction at 2.5 µM under setting [1] was 0.77, the fold induction at 2.5 µM under setting [2] worked out at 0.84 and the fold induction at 2.5 µM under setting [3] was 0.69.

For the molecule `CCOC(=O)c1ccc(NC2CCCCC2)c(N)c1` [Ferrostatin-1 (Fer-1)], the “Average LMP1 Fold Increase” value is reported as 0.22, the “Replicate 1-LMP1 Fold Increase” value turned out to be 0.24 and the “Replicate 2-LMP1 Fold Increase” value is 0.19.

Consider `CC(C)(C)NC(=O)[C@H]1CC[C@H]2[C@@H]3CC[C@H]4NC(=O)C=C[C@]4(C)[C@H]3CC[C@]12C` [Finasteride], for which the fold induction at 2.5 µM is, setting by setting: under setting [1], 0.66; under setting [2], 0.51; under setting [3], 0.81.

With `CCCCCCCCc1ccc(CCC(N)(CO)CO)cc1.Cl` [Fingolimod (FTY720) HCl], the “Average LMP1 Fold Increase” value is reported as 0.69, the “Replicate 1-LMP1 Fold Increase” value amounted to 0.33 and the “Replicate 2-LMP1 Fold Increase” value turned out to be 1.06.

For the molecule `CC(C)n1c(/C=C/C(O)CC(O)CC(=O)O)c(-c2ccc(F)cc2)c2ccccc21` (stereo not drawn) [Fluvastatin Sodium], the fold induction at 2.5 µM amounted to 0.94 under setting [1], 0.84 under setting [2] and 1.04 under setting [3].

Regarding `COCCCC/C(=N\OCCN)c1ccc(C(F)(F)F)cc1` [Fluvoxamine maleate], the fold induction at 2.5 µM turned out to be 0.67 under setting [1], 0.97 under setting [2] and 0.37 under setting [3].
